The test system of this experiment is Jurkat transformed T cell line. Nature of the experiment: Apoptosis by FACS, hypo-diploid nuclei PI staining, Jurkat cells. It counts as cell-based, human. The conditions noted are these: Jurkat tumor line cells; 10 μg in ethanol solution. As for the experimental part:
White bars (left bar of each pair) represent cells treated with 10 μg of amino-phenyl-acetic acid octadec-(Z)-9-enyl ester in ethanol solution, and black bars (right bar of each pair) represent cells treated with 10 μg of the control molecule 4-methyl-piperazino-acetic acid ethyl ester in ethanol solution. The two bars on the left represent freshly isolated T cells and the two bars on the right represent transformed Jurkat cells.
B or T-cell apoptosis was detected by flow cytometry. Briefly, purified cells were seeded in 24 well plates, 5×10^5 per well, and incubated for 48 h at 37° C. 5% CO2 in the presence of HSP60 (heat shock protein 60) at the indicated concentration of amino-phenyl-acetic acid octadec-(Z)-9-enyl ester. […] The cells were then subjected to flow cytometric analysis; for each sample 10,000 were collected and cell-cycle distribution was analyzed according to relative DNA content (PI staining). […] The cells were then collected, stained by APO-DIRECT TUNNEL kit (Phnxflow, CITY, Calif., USA); mitochondrial potential was measured by DePsipher (R&D Systems, Minneapolis, Minn.) according to the manufacturer's procedure. Intracellular caspase activity was measured by Apostat kit (R&D Systems), according to the manufacturer's procedure. The cells were analyzed by Flow cytometry using FACSort (Becton Dickinson) and CellQuest software (Becton Dickinson).

Turning to `CCCCCCCC/C=C\CCCCCCCCOC(=O)C(N)c1ccccc1` (stereo not shown) [amino-phenyl-acetic acid octadec-(Z)-9-enyl ester], the apoptosis came out at 100%.
